Source: publication PMC6240031, “CYP6AE gene cluster knockout in Helicoverpa armigera reveals role in detoxification of phytochemicals and insecticides” (Nature Communications, 2018)

What was measured:
Assay in all cases: substrate depletion, UPLC-MS/MS
Format in all cases: biochemical
Settings in all cases: 20 uM substrate, NADPH regeneration system, 0.1 M potassium phosphate pH 7.4, 30 C, 1 h, microsomes
CYP6AE11 = target: T1, CYP6AE11 (Helicoverpa armigera, UniProt A0A068ETU4)
T1 construct: full ORF, baculovirus (Bac-to-Bac) in High Five cells, microsomes, co-expressed with H. armigera cytochrome P450 reductase (HaCPR)
T1 sequence (A0A068ETU4 1-522): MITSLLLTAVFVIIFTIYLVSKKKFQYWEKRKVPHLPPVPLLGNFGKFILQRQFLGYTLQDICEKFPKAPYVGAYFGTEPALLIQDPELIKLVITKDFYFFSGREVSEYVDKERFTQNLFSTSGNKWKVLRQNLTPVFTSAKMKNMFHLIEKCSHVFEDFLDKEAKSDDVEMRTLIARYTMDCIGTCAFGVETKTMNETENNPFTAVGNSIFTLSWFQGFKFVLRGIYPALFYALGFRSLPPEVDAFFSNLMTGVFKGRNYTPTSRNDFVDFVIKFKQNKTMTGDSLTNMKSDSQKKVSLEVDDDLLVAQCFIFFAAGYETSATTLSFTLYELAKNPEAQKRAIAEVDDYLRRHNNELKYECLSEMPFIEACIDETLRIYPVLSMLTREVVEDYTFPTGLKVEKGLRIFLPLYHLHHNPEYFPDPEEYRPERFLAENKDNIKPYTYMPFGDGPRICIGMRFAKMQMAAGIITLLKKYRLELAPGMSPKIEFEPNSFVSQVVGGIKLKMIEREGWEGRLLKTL

CYP6AE19 = target: T2, CYP6AE19 (Helicoverpa armigera, UniProt A0A068EVL0)
T2 construct: full ORF, baculovirus (Bac-to-Bac) in High Five cells, microsomes, co-expressed with H. armigera cytochrome P450 reductase (HaCPR)
T2 sequence (A0A068EVL0 1-528): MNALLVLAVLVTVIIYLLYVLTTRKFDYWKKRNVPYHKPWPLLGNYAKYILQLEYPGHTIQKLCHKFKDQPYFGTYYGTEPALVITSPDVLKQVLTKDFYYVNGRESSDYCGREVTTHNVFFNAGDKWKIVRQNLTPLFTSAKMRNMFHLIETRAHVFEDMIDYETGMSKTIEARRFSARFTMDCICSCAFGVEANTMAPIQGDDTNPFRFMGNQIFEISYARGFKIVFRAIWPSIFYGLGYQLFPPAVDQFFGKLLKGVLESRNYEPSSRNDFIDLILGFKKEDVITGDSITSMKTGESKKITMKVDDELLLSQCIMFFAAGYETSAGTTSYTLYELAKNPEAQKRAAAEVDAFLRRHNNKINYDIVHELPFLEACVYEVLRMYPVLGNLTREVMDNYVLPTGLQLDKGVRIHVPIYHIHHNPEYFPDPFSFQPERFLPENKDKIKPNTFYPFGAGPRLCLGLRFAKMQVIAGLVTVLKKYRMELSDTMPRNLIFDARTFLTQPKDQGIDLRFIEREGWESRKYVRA

CYP6AE14 = target: T3, CYP6AE14 (Helicoverpa armigera, UniProt A0A068EU65)
T3 construct: full ORF, baculovirus (Bac-to-Bac) in High Five cells, microsomes, co-expressed with H. armigera cytochrome P450 reductase (HaCPR)
T3 sequence (A0A068EU65 1-526): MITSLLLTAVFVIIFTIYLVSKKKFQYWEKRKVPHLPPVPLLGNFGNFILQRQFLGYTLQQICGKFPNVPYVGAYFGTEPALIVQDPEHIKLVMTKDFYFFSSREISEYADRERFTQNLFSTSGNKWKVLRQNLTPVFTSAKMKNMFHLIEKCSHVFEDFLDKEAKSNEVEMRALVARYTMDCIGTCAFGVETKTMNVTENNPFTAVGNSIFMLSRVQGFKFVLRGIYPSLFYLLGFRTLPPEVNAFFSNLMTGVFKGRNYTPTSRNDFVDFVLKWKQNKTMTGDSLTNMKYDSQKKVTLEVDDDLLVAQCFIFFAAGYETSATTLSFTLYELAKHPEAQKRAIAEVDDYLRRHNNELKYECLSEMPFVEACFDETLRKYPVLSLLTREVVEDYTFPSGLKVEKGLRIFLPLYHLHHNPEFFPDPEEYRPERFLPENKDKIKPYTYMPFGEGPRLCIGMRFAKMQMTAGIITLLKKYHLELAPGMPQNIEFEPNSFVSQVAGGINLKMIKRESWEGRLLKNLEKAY

CCCCCCCCCCCC(C)=O [2-tridecanone]
substrate depletion, UPLC-MS/MS (CYP6AE11): 2-tridecanone was metabolized by three CYP6AE P450s: CYP6AE11, CYP6AE14, and CYP6AE19 | substrate depletion, UPLC-MS/MS (CYP6AE19): 2-tridecanone was metabolized by three CYP6AE P450s: CYP6AE11, CYP6AE14, and CYP6AE19 | substrate depletion, UPLC-MS/MS (CYP6AE14): 2-tridecanone was metabolized by three CYP6AE P450s: CYP6AE11, CYP6AE14, and CYP6AE19
